Columns and labels:
Format in all cases: cell-based
[1] = test system: human iPS cells (TkDN4-M cell lines); assay: Cell aggregate formation and size (widest portion) in swirling suspension culture, phase contrast microscopy; settings: for Number of cell aggregates by size / Percentage of cell aggregates by size: CCG-1423 added
Procedure: A cell suspension was prepared in the same manner as in Example 2, and separately, the cell aggregation promoter was adjusted so that the final concentration of CCG-1423 (same as above) was 4.55 mg/mL (10 mM), then the adjusted cell aggregation promoter was added to the cell suspension so that the final concentration of CCG-1423 was 10 μM, and the cells were seeded at a ratio of 4 mL/well in a 6-well plate for suspension culture (Sumitomo Bakelite Co., Ltd.). The cell-seeded plate was subjected to a swirling culture on a rotary shaker (OPTIMA, Inc.) at a speed of 90 rpm along the horizontal plane to draw a circle with a swirling width (diameter) of 25 mm and cells were cultured in suspension under a condition at 5% CO2 and 37° C. After the next day of culture (Day 1 of culture), the culture medium was exchanged daily for a fresh culture medium (Essential 8™ culture medium containing BSA (Wako Pure Chemical Industries, Ltd.) at a final concentration of 5 mg/mL), and the culture continued until 5 days after the start of culture. A control test was conducted by culturing in the same way except for using CCG-1423 and Y-27632 free culture media. Images were obtained by phase contrast microscopy every day during culture. While 208 cell aggregates in images obtained at Day 1 of culture being observed and compared using a micrograph scale, the width (referred to as “φ”) of the widest portion of each cell aggregate was measured, distribution thereof was examined, and average±standard deviation was calculated. The concentration of glucose contained in the culture supernatant collected at the time of culture medium exchange was measured with biosensor BF-5iD (Prince Measuring Equipment Co., Ltd.) to calculate glucose consumption.

[2] = test system: human iPS cells (TkDN4-M cell lines); assay: Cell aggregation assay, suspension culture, phase contrast microscopy at Day 1; settings: 10 μM CCG-1423, 2.5 μM Y-27632, Day 1 of culture, 12-well plate, FIG. 1
Procedure: TkDN4-M cell lines (Institute of Medical Science, The University of Tokyo) were used as human iPS cells. Human iPS cells were seeded on cell culture dishes coated with Vitronectin (Thermo Fisher Scientific Co., Ltd.) and subjected to a maintenance culture using Essential 8™ (Thermo Fisher Scientific Co., Ltd.) as the culture medium. Accutase (Thermo Fisher Scientific Co., Ltd.) was used as a cell detachment agent during passage. In addition, when the cells were seeded, Y-27632 (Wako Pure Chemical Industries, Ltd.) at a concentration of 10 μM was added to a culture medium. The culture medium was changed every day. For experiments, human iPS cells (the number of passage was 50 or less) were used.
(§1) Human iPS cells that had been cultured using the protocol of Example 1 were treated with Accutase for 3 to 5 minutes and were detached and dispersed to single cells. The resulting cells were suspended in Essential 8™ culture medium containing a final concentration of 5 mg/mL of BSA (Wako Pure Chemical Industries, Ltd.) and a final concentration of 2.5 μM of Y-27632 (Wako Pure Chemical Industries, Ltd.), and a portion thereof was stained with trypan blue and the number of cells was counted. The cell suspension was prepared so as to contain 2×10^5 cells per ml. […]

[3] = test system: human iPS cells (TkDN4-M cell lines); assay: Percentage of cells positive for undifferentiation markers (SOX2, OCT4, Nanog), flow cytometry; settings: Day 5 of culture, aggregates produced in medium comprising CCG-1423, FIG. 6
Procedure: In addition, at Day 5 of culture, cell aggregates were collected, dispersed with Accutase, and then suspended in Essential 8™ culture medium containing 5 mg/mL BSA. A portion of this cell suspension was stained with trypan blue and the number of cells was counted. After the above cell suspensions were centrifuged at 300 g for 3 minutes, the supernatant was then removed, and the cells were washed with PBS (phosphate buffered saline). Next, the cells were fixed with 4% paraformaldehyde (Wako Pure Chemical Industries, Ltd.) at room temperature for 20 minutes, then washed 3 times with PBS. After cells were resuspended with 300 μL of PBS, 3 mL of cold methanol was added while stirring with voltex, and permeabilized at −20° C. overnight or more. After 3 washes with 3% FBS (fetal bovine serum)/PBS, cells were resuspended with 3% FBS (fetal bovine serum)/PBS and blocked at room temperature for 30 minutes to 1 hour. Subsequently, the cells were stained with fluorescently labeled anti-SOX2 antibodies (Cat. No. 656110, BioLegend, Inc.) and fluorescently labeled anti-OCT4 antibodies (Cat. No. 653703, BioLegend, Inc.) and fluorescently labeled anti-Nanog antibodies (Cat. No. 674010, BioLegend, Inc.) at 4° C. for 30 minutes to 1 hour. After washed once with 3% FBS (fetal bovine serum)/PBS, the cells were made to pass through a cell strainer. The resulting cells were analyzed on FACSVerse. A control test was conducted using cells that were treated in the same way except for reacting, instead of the above three antibodies (fluorescently labeled anti-SOX2 antibody, fluorescently labeled anti-OCT4 antibody, fluorescently labeled anti-Nanog antibody), with three fluorescently labeled isotype control antibodies (Cat. No. 400129, Cat. No. 400314, Cat. No. 400136; BioLegend, Inc.) corresponding to each of the above three antibodies.

[4] = test system: human iPS cells (TkDN4-M cell lines); assay: Number of dead cells, Cytotoxicity LDH Assay Kit-WST, Day 1 of suspension culture; settings: 10 μM CCG-1423, 2.5 μM Y-27632, Day 1 of culture, FIG. 2
Procedure: as §1, with “ml. Separately, the cell aggregation promoter was adjusted so that the final concentration of CCG-1423 (Cayman, 10010350) was 4.55 mg/mL (10 mM), then the adjusted cell aggregation promoter was added to the cell suspension so that the final concentration of CCG-1423 was 10 μM. Then the cells were seeded at a ratio of 1.3 mL/well in a 12-well plate for suspension culture (Sumitomo Bakelite Co., Ltd.).” for “ml.”
At the next day after the start of culture (Day 1 of culture), images were obtained by phase contrast microscopy, and the number of dead cells was calculated with Cytotoxicity LDH Assay Kit-WST (Peer Chemistry Research Institute, Inc.).

[5] = test system: human iPS cells (TkDN4-M cell lines); assay: Glucose consumption of suspension culture (biosensor BF-5iD); settings: Day 1 to Day 5 of culture, CCG-1423 added condition, FIG. 4
Procedure: A cell suspension was prepared in the same manner as in Example 2, and separately, the cell aggregation promoter was adjusted so that the final concentration of CCG-1423 (same as above) was 4.55 mg/mL (10 mM), then the adjusted cell aggregation promoter was added to the cell suspension so that the final concentration of CCG-1423 was 10 μM, and the cells were seeded at a ratio of 4 mL/well in a 6-well plate for suspension culture (Sumitomo Bakelite Co., Ltd.). The cell-seeded plate was subjected to a swirling culture on a rotary shaker (OPTIMA, Inc.) at a speed of 90 rpm along the horizontal plane to draw a circle with a swirling width (diameter) of 25 mm and cells were cultured in suspension under a condition at 5% CO2 and 37° C. […] While 208 cell aggregates in images obtained at Day 1 of culture being observed and compared using a micrograph scale, the width (referred to as “φ”) of the widest portion of each cell aggregate was measured, distribution thereof was examined, and average±standard deviation was calculated. The concentration of glucose contained in the culture supernatant collected at the time of culture medium exchange was measured with biosensor BF-5iD (Prince Measuring Equipment Co., Ltd.) to calculate glucose consumption.

[6] = test system: human iPS cells (TkDN4-M cell lines); assay: Cell yield at Day 5 of suspension culture (trypan blue, hemocytometer); settings: Day 5 of culture, aggregates formed with 10 μM CCG-1423, FIG. 5
Procedure: A cell suspension was prepared in the same manner as in Example 2, and separately, the cell aggregation promoter was adjusted so that the final concentration of CCG-1423 (same as above) was 4.55 mg/mL (10 mM), then the adjusted cell aggregation promoter was added to the cell suspension so that the final concentration of CCG-1423 was 10 μM, and the cells were seeded at a ratio of 4 mL/well in a 6-well plate for suspension culture (Sumitomo Bakelite Co., Ltd.). […] While 208 cell aggregates in images obtained at Day 1 of culture being observed and compared using a micrograph scale, the width (referred to as “φ”) of the widest portion of each cell aggregate was measured, distribution thereof was examined, and average±standard deviation was calculated. The concentration of glucose contained in the culture supernatant collected at the time of culture medium exchange was measured with biosensor BF-5iD (Prince Measuring Equipment Co., Ltd.) to calculate glucose consumption.
In addition, at Day 5 of culture, cell aggregates were collected, dispersed with Accutase, and then suspended in Essential 8™ culture medium containing 5 mg/mL BSA. A portion of this cell suspension was stained with trypan blue and the number of cells was counted. […] The resulting cells were analyzed on FACSVerse. […]
Cell yields were also measured at Day 5 of culture. […]

[7] = Day 1 of culture, 10 μM CCG-1423
[8] = size range 40- μm, Day 1 of culture
[9] = size range 60- μm, Day 1 of culture
[10] = size range 80- μm, Day 1 of culture
[11] = size range 100- μm, Day 1 of culture
[12] = size range 120- μm, Day 1 of culture
[13] = size range 140- μm, Day 1 of culture
[14] = size range 160- μm, Day 1 of culture
[15] = size range 180- μm, Day 1 of culture
[16] = size range 200- μm, Day 1 of culture
[17] = size range 220- μm, Day 1 of culture
[18] = size range 240- μm, Day 1 of culture
[19] = size range 260- μm, Day 1 of culture
[20] = size range 280- μm, Day 1 of culture
[21] = size range 300- μm, Day 1 of culture

CC(ONC(=O)c1cc(C(F)(F)F)cc(C(F)(F)F)c1)C(=O)Nc1ccc(Cl)cc1 (stereo not drawn) [CCG-1423, N-[2-[4(4-chlorophenyl)amino]-1-methyl-2-oxoethoxy]-3,5-bis(trifluoromethyl)-benzamide]
cell aggregate formation after seeding to Day 1 of culture ([1]; 10 μM CCG-1423, 6-well plate, FIG. 3): cell aggregates were formed | cell aggregates on continued culture to Day 5 ([1]; 10 μM CCG-1423 until Day 1, then medium exchanged daily, Day 1 to Day 5, FIG. 3): cell aggregates were expanded | percentage of cell aggregates with size (diameter) 60 μm or more and 300 μm or less [1, 7]: 99.5% | percentage of cell aggregates with size (diameter) 80 μm or more and 300 μm or less [1, 7]: 98.5% | percentage of cell aggregates with size (diameter) 100 μm or more and 300 μm or less [1, 7]: 98.5% | average±standard deviation of cell aggregate size (diameter) ([1]; Day 1 of culture, 10 μM CCG-1423, 208 cell aggregates): 171.3±22.8 μm | percentage of cell aggregates with size (diameter) 40 μm or more and 300 μm or less ([1]; Day 1 of culture, 10 μM CCG-1423, to total cell aggregate count): 100% | Number of cell aggregates by size [1, 8]: 1 | Percentage of cell aggregates by size [1, 8]: 0.5% | Number of cell aggregates by size [1, 9]: 2 | Percentage of cell aggregates by size [1, 9]: 1.0% | Number of cell aggregates by size [1, 10]: 0 | Percentage of cell aggregates by size [1, 10]: 0.0% | Number of cell aggregates by size [1, 11]: 2 | Percentage of cell aggregates by size [1, 11]: 1.0% | Number of cell aggregates by size [1, 12]: 6 | Percentage of cell aggregates by size [1, 12]: 2.9% | Number of cell aggregates by size [1, 13]: 39 | Percentage of cell aggregates by size [1, 13]: 18.8% | Number of cell aggregates by size [1, 14]: 87 | Percentage of cell aggregates by size [1, 14]: 41.8% | Number of cell aggregates by size [1, 15]: 60 | Percentage of cell aggregates by size [1, 15]: 28.8% | Number of cell aggregates by size [1, 16]: 9 | Percentage of cell aggregates by size [1, 16]: 4.3% | Number of cell aggregates by size [1, 17]: 2 | Percentage of cell aggregates by size [1, 17]: 1.0% | Number of cell aggregates by size [1, 18]: 0 | Percentage of cell aggregates by size [1, 18]: 0.0% | Number of cell aggregates by size [1, 19]: 0 | Percentage of cell aggregates by size [1, 19]: 0.0% | Number of cell aggregates by size [1, 20]: 0 | Percentage of cell aggregates by size [1, 20]: 0.0% | Number of cell aggregates by size [1, 21]: 0 | Percentage of cell aggregates by size [1, 21]: 0.0% | cell aggregation compared to the control test (0 μM CCG-1423) [2]: aggregation was promoted | percentage of cells positive for Nanog [3]: ≥ 99% | percentage of cells positive for OCT4 [3]: ≥ 97% | percentage of cells positive for SOX2 [3]: ≥ 99% | number of dead cells compared to the control test (0 μM CCG-1423) [4]: reduced | glucose consumption [5]: increased daily | proliferation of the number of seeded cells (8×10^5 cells/well) [6]: approximately 8.5 fold

— patent US20210062159A1, “CELL AGGREGATION PROMOTER” (KANEKA CORPORATION, priority 2017, published 2021)
